In one test the target is T1, human RARβ (Homo sapiens, UniProt P10826).
T1 sequence (P10826 1-455): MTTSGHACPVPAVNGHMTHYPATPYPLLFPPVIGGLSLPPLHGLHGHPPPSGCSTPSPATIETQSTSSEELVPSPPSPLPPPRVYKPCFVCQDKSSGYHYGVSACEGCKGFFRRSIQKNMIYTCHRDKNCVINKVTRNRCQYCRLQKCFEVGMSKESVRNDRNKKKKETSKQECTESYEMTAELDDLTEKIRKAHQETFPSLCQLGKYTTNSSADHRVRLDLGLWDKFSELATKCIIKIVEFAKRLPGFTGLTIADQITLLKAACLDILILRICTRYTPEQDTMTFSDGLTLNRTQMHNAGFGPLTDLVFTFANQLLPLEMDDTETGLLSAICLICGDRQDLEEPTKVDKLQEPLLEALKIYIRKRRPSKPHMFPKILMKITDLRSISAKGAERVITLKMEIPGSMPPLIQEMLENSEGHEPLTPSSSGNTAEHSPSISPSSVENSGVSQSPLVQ
Put plainly: Transcription-promoting activity via RAR (PLAP reporter in COS-1 cells), RAR-β. Set-up: expressed in transfected cells; host or cells: COS-1 (African green monkey kidney), transient lipofection. It counts as cell-based. The settings on record: Relative ED30: ED30 of all-trans-retinoic acid for each receptor = 1. How it is done:
(§1) A human RAR expression vector and a secretory alkali phosphatase (PLAP) gene vector (PLAP vector) having a response sequence integrated upstream for allowing RAR-bound PLAP to be expressed depending on ligand, were tentatively introduced into COS-1 (renal cell line derived from African green monkey). The PLAP, which was produced depending on ligand and secreted into a culture liquid, was measured by chemiluminescence techniques to examine the transcription-promoting activity of each test compound. Further, the ability of the test compound to promote the transcription of each receptor subtype was compared to determine the selectivity of the compound for RAR subtype.
(§2) 2.5×10^4 COS-1 cells were plated onto a 60-mm Petri dish, and after 4 days, the cells were transformed by lipofection with 4 μg expression vector for human RARα, RARβ or RARγ and 4 μg PLAP vector. After 1 day, the cells were recovered and plated at a density of 2×10^4 cells/well on a 96-well culture plate. After 4 hours, the medium was exchanged with a charcoal treated FBS-containing medium, then a diluted solution of all-trans-retinoic acid or a test compound was added thereto, and after 36 hours, the supernatant was recovered from the cell culture. The recovered sample was treated for 10 minutes at 65° C. to eliminate unspecific activity. 15 μl of the sample was mixed with 60 μl of 28 mM sodium carbonate buffer (pH 10) and reacted with 75 μl of a chemifluorescent substrate Smilight™ (Sumitomo Metal Industries, Ltd.) at 37° C. for 30 minutes to determine the […].
(§3) The concentration (ED30) of each test compound showing 30% activity, where it was assumed that the average transcriptional activity induced by and 3 μM all-trans-retinoic acid was 100%, was determined. Then, the relative ED30 of each compound, where it was assumed that the ED30 of all-trans-retinoic acid for each receptor was 1, is shown as Relative ED30* in Tables 4-1 and 4-2.

For a further test, the target named is T2, human RARγ (Homo sapiens, UniProt P13631).
T2 sequence (P13631 1-454): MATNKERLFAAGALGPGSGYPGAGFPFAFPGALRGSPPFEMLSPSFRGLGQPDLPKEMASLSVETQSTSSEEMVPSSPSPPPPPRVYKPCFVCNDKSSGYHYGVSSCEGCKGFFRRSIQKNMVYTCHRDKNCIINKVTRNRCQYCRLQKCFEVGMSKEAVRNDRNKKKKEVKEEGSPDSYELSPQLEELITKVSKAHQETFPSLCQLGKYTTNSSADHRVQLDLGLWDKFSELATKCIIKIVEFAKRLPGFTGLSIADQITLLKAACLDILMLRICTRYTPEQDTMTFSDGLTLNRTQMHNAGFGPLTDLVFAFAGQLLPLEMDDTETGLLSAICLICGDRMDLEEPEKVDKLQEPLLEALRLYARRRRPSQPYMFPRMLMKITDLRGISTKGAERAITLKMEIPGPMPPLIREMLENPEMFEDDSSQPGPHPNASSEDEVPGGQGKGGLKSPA
Put plainly: Transcription-promoting activity via RAR (PLAP reporter in COS-1 cells), RAR-γ. Type of test: cell-based. Set-up: expressed in transfected cells; host or cells: COS-1 (African green monkey kidney), transient lipofection. The settings on record: Relative ED30: ED30 of all-trans-retinoic acid for each receptor = 1. How it is done: as §1, §2, §3

Another test has as its target T3, human RARα (Homo sapiens, UniProt P10276).
T3 sequence (P10276 1-462): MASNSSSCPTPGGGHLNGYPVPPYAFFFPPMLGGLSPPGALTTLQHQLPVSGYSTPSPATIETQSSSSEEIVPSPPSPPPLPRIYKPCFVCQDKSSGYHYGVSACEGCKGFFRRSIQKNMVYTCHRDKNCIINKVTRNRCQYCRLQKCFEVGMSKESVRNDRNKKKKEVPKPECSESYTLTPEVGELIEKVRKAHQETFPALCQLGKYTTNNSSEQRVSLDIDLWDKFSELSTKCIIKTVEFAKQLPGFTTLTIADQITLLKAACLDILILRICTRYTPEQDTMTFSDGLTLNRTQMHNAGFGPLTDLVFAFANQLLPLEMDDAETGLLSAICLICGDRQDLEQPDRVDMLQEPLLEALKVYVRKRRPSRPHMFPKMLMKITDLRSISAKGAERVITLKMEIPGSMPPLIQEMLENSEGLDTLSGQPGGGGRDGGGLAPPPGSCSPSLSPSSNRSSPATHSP
Put plainly: Transcription-promoting activity via RAR (PLAP reporter in COS-1 cells), RAR-α. The settings on record: Relative ED30: ED30 of all-trans-retinoic acid for each receptor = 1. Set-up: expressed in transfected cells; host or cells: COS-1 (African green monkey kidney), transient lipofection. It counts as cell-based. The procedure: as §1, §2, §3

The test system of test [1] is accelerated Masugi nephritis. Put plainly: Rat model with accelerated Masugi nephritis (proteins excreted in urine for 24 hours). Type of test: in vivo, Sprague-Dawley strain rats. The settings on record: dose 0.3 mg/kg, oral once every day; compared with the control group; 0.3 mg/kg. The procedure: Sprague-Dawley strain rats were immunized by subcutaneously administering rabbit γ-globulin in a dose of 4 mg/rat along with Freund's complete adjuvant into the bottoms of their both hind legs. On the 5th day after the rats were immunized, 1 ml of anti-rat glomerular basement membrane rabbit serum diluted 6- or 8-fold was administered via tail veins into the animals. On the 8th day, the rats were forced to be orally administered 8 ml sterilized water and then placed in a metabolism cage, and their urine was collected for 24 hours during which the animals were allowed neither food nor water. As the indicator of the model with accelerated Masugi nephritis, the amount of proteins excreted in urine for 24 hours was used.
The medium was administered into the control group.

In test [2] the test system is anti-rabbit γ-globulin IgG2a antibody titer. Put plainly: Rat model producing antibody (anti-rabbit γ-globulin antibody titer in serum, ELISA). Type of test: in vivo, Sprague-Dawley strain rats. The settings on record: dose 0.3 mg/kg oral once every day for 14 days; 14th day after immunization. How it is done:
Sprague-Dawley strain rats were immunized by subcutaneously administering rabbit γ-globulin in a dose of 4 mg/rat along with Freund's complete adjuvant into the bottoms of their both hind legs. On the 14th day after the rats were immunized, blood was collected from their tail veins and examined for anti-rabbit γ-globulin antibody titer in serum by the ELISA method.
The test compounds A, B, C and D were suspended respectively in 0.5% aqueous methyl cellulose solution and orally administered once every day for 14 days from the day on which the animals were immunized with rabbit γ-globulin. The medium was administered into the control group.

In test [3] the test system is albuminuria in (NZB×NZW)F1 mice. Put plainly: Mouse model with spontaneous onset of SLE: urine protein / onset of albuminuria. Type of test: in vivo, female (NZB×NZW) F1 mice. The settings on record: dose 0.03 mg/kg. The text has this:
In this experiment, female (NZB×NZW) F1 mice were used. Administration of each test compound was initiated at the age of 16 weeks, and blood was collected at predetermined intervals from the orbital venous plexus of the animals under anesthesia with ether and examined for anti-DNA (single-stranded chain: ss, double stranded chain: ds) antibody titer in serum. Further, urine was collected and measured for urine protein.
The test compounds A, B and D were suspended in 0.5% aqueous methyl cellulose solution and orally administered daily once into the animals for 6 days/week for 18 weeks. The medium was administered into the control group.
The effect of each compound on the onset of albuminuria after 18 weeks of administration (in 34-week-old animals) is shown in Table 2.

Setting [4] is: after 18 weeks of administration (34-week-old), 8 animals.

Regarding `C[Si](C)(C)c1cc(C(=O)Nc2ccc(C(=O)O)cc2)cc([Si](C)(C)C)c1` [drawing 31], at human RARβ, the “Transcription promoting activity ED30* RAR-β” value is 420. Also, at human RARγ, the “Transcription promoting activity ED30* RAR-γ” value is recorded as 7800. Further, the “Transcription promoting activity ED30* RAR-α” value on human RARα was determined as 6.
`CC1CCCN(C)c2ncc(-c3ccc(-c4ccc(C(=O)O)cc4)[nH]3)nc21` (stereo not shown) [drawing 28]: the “Transcription promoting activity ED30* RAR-β” value on human RARβ is reported as 7.4. Further, the “Transcription promoting activity ED30* RAR-γ” value on human RARγ came out at 20. Moreover, the “Transcription promoting activity ED30* RAR-α” value at human RARα is 1.4.
In the same order, the values of `CCn1nc(-c2ccc(-c3ccc(C(=O)O)cc3)[nH]2)cc1C(C)C` [drawing 29] are 14, 89 and 0.85.
In the same order, the values of `CC1(C)CCC(C)(C)c2nc(-c3ccc(-c4ccc(C(=O)O)cc4)[nH]3)cnc21` [drawing 26] are 1.4, 1.9 and 0.21.
`COCc1cc2c(cc1-c1ccc(-c3ccc(C(=O)O)cc3)[nH]1)C(C)(C)CCC2(C)C` [drawing 30]: the “Transcription promoting activity ED30* RAR-β” value at human RARβ came to 29. Further, on human RARγ, the “Transcription promoting activity ED30* RAR-γ” value stood at 62. In addition, the “Transcription promoting activity ED30* RAR-α” value on human RARα came to 1.9.
In the same order, the values of `CC1(C)CCCc2ncc(-c3ccc(-c4ccc(C(=O)O)cc4)[nH]3)nc21` [drawing 27] are 11, 170 and 0.2.
Regarding `Cc1ccc(C)c2c(F)c(-c3ccc(-c4ccc(C(=O)O)cc4)[nH]3)oc12` [Compound C, 4-{2-[5-(3-fluoro-4,7-dimethylbenzofuran-2-yl)pyrrolyl]}benzoic acid], the “Degree of Inhibition of Albuminuria (%)” value in test [1] worked out at 87.7%. In test [2], the “effect on anti-rabbit γ-globulin IgG2a antibody titer” value is reported as “inhibited significantly”.
For `CCc1ccc(C)c2cc(-c3ccc(-c4ccc(C(=O)O)cc4)[nH]3)oc12` [Compound D, 4-{2-[5-(7-ethyl-4-methylbenzofuran-2-yl)pyrrolyl]}benzoic acid], the “Degree of Inhibition of Albuminuria (%)” value in test [1] stood at 80.3%. Further, in test [3] (after 18 weeks of administration), the “onset of albuminuria (in words)” value is given as “complete inhibition”. In test [3] (setting [4]), the “Number of animals with Concentration of Urine Protein (mg/ml) <0.3” value was 8, the “Number of animals with Concentration of Urine Protein (mg/ml) >0.3” value is 0, the “Number of animals with Concentration of Urine Protein (mg/ml) >1” value is reported as 0 and the “Number of animals with Concentration of Urine Protein (mg/ml) >3” value amounted to 0. In addition, in test [3] (setting [4]), the “Number of animals with Concentration of Urine Protein (mg/ml) >10” value stood at 0. Besides, in test [2], the “effect on anti-rabbit γ-globulin IgG2a antibody titer” value is given as “inhibited significantly”.
